Experimental data taken from US5972975A, “Substituted 2-aminopyridines as inhibitors of nitric oxide synthase” (priority 1997, dated 1999).
Structures can show the parent of a compound that is named as a salt. Where two headings read alike, the source gives them in different places.

Experiments:
iNOS = iNOS (Homo sapiens, UniProt P35228); test: NOS activity: L-[3H]citrulline formation from L-[3H]arginine, iNOS; format: biochemical
Experimental: (§1) NOS activity is measured as the formation of L-[2,3,4,5-^3 H]Citrullinefrom L-[2,3,4,5-^3 H]Arginine. The incubation buffer (100 μL) contained; 100 mM TES, pH 7.5, 5 μM FAD, 5 μM FMN, 10 μM BH4, 0.5 mM NADPH, 0.5 mM DTT, 0.5 mg/mL BSA, 2 mM CaCl2, 10 μg/mL calmodulin (bovine), 1 μM L-Arg, 0.2 μCi L-[2,3,4,5-^3 H]Arg, and the inhibitor in aqueous DMSO (max. 5%). The reaction is initiated by addition of enzyme. Incubations are performed at room temperature for 30 minutes and stopped by the addition of an equal volume of quenching buffer consisting of 200 mM sodium citrate, pH 2.2, 0.02% sodium azide. Reaction products are separated by passing through a cation exchange resin and quantitated as cpm by scintillation counting.

ecNOS = ecNOS (Homo sapiens, UniProt P29474); test: NOS activity: L-[3H]citrulline formation from L-[3H]arginine, ecNOS; format: biochemical
Experimental: as §1

ncNOS = ncNOS (Homo sapiens, UniProt P29475); test: biochemical
Sequence of ncNOS (P29475 whole entry): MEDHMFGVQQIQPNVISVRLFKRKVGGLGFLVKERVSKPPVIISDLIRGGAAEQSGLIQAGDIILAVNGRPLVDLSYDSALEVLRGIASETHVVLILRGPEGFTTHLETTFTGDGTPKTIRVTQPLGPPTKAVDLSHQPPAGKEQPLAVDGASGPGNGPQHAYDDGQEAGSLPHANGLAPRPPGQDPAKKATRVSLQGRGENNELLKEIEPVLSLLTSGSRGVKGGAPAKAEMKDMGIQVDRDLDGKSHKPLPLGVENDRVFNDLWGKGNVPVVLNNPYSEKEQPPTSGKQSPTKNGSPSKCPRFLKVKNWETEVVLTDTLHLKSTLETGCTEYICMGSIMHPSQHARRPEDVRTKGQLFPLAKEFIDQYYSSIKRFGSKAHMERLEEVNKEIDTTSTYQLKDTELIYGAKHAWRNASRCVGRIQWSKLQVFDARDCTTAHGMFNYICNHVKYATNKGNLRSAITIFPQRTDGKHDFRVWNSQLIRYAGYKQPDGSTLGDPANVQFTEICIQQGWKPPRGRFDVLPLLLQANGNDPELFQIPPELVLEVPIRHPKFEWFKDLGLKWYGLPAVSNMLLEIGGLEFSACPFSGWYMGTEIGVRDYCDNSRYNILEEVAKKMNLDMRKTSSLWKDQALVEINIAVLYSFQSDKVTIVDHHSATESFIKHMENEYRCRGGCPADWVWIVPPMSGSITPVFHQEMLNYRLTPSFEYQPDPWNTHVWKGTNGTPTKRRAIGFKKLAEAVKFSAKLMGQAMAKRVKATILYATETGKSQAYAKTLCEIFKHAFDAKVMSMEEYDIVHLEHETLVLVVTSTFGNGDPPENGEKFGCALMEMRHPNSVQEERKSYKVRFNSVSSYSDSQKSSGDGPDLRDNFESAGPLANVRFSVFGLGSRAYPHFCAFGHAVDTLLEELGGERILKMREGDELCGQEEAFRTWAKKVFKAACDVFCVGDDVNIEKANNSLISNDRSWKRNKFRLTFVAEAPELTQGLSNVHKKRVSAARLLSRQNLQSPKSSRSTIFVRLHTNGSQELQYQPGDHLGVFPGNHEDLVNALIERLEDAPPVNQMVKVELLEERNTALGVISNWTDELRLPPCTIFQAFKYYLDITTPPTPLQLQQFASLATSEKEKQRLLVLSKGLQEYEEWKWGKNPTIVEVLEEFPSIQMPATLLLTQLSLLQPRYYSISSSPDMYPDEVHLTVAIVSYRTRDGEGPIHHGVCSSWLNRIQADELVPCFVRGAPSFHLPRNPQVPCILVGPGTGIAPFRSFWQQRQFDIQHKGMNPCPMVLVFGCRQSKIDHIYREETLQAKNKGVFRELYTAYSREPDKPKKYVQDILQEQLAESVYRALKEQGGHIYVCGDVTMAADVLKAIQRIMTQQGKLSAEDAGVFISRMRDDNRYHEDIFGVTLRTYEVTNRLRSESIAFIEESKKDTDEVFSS

[1] = Table 1, iNOS, 1 μM L-Arg, pH 7.5, room temperature, 30 minutes, read-out: iNOS (IC50)
[2] = Table 1, ecNOS, 1 μM L-Arg, pH 7.5, room temperature, 30 minutes, read-out: ecNOS (IC50)
[3] = Table 1, ncNOS, 1 μM L-Arg, pH 7.5, room temperature, 30 minutes, read-out: ncNOS (IC50)
[4] = Table 2, iNOS, 1 μM L-Arg, pH 7.5, room temperature, 30 minutes, read-out: iNOS (IC50)
[5] = Table 2, ecNOS, 1 μM L-Arg, pH 7.5, room temperature, 30 minutes, read-out: ecNOS (IC50)
[6] = Table 2, ncNOS, 1 μM L-Arg, pH 7.5, room temperature, 30 minutes, read-out: ncNOS (IC50)

Row | IC50 (iNOS; [4]) | IC50 (ecNOS; [5]) | IC50 (ncNOS; [6]) | Structure (SMILES) | other results
1 | – | – | – | Nc1ccccn1 [Example 1] | IC50 (iNOS; [1]): 1.4 µM; IC50 (ecNOS; [2]): < 10 µM; IC50 (ncNOS; [3]): < 10 µM
2 | – | – | – | Cc1cccnc1N [Example 2] | IC50 (iNOS; [1]): 3.4 µM; IC50 (ecNOS; [2]): 1.2 µM
3 | – | – | – | Cc1ccc(N)nc1 [Example 4] | IC50 (iNOS; [1]): 1.3 µM; IC50 (ecNOS; [2]): 3.1 µM
4 | – | – | – | Cc1cccc(N)n1 [Example 5] | IC50 (ecNOS; [2]): 0.82 µM
5 | – | – | – | Cc1cc(C)nc(N)c1 [Example 6] | IC50 (iNOS; [1]): 0.108 µM
6 | – | – | – | Nc1cc(C(F)(F)F)ccn1 [Example 8] | IC50 (iNOS; [1]): 13.2 µM; IC50 (ecNOS; [2]): 73 µM
7 | – | – | – | Nc1ncccc1O [Example 9] | IC50 (iNOS; [1]): 47.5 µM; IC50 (ecNOS; [2]): > 50 µM; IC50 (ncNOS; [3]): > 50 µM
8 | – | – | – | Nc1cccnc1N [Example 10] | IC50 (iNOS; [1]): < 10 µM; IC50 (ecNOS; [2]): 1.9 µM
9 | – | – | – | Nc1cc(-c2ccccc2)ccn1 [Example 11] | IC50 (iNOS; [1]): > 50 µM
10 | – | – | – | Nc1cc(Cc2ccccc2)ccn1 [Example 12] | IC50 (iNOS; [1]): > 50 µM
11 | – | – | – | Cc1ccnc(N)c1C [Example 13, 2-Amino-3,4-dimethylpyridine] | IC50 (iNOS; [1]): 0.076 µM; IC50 (ecNOS; [2]): < 1 µM
12 | – | – | – | CC(C)(C)c1ccnc(N)c1 [Example 14, 2-Amino-4-tert-butylpyridine] | IC50 (iNOS; [1]): > 50 µM
13 | – | – | – | Nc1cc(Cl)ccn1 [Example 15, 2-Amino-4-chloropyridine] | IC50 (iNOS; [1]): < 1 µM; IC50 (ecNOS; [2]): < 10 µM; IC50 (ncNOS; [3]): < 10 µM
14 | – | – | – | N#Cc1ccnc(N)c1 [Example 16, 2-Amino-4-cyanopyridine] | IC50 (iNOS; [1]): > 50 µM
15 | – | – | – | Cc1ccnc(N)c1N [Example 17, 2,3-Diamino-4-methylpyridine] | IC50 (iNOS; [1]): 0.058 µM; IC50 (ecNOS; [2]): 0.081 µM
16 | – | – | – | Cc1ccnc(NCc2ccccc2)c1 [Example 18, 2-Benzylamino-4-methylpyridine] | IC50 (iNOS; [1]): 2.4 µM; IC50 (ecNOS; [2]): < 50 µM
17 | < 10 µM | > 50 µM | > 50 µM | Cc1ccnc(N)c1NC(=O)NCc1ccccc1 [Example 19, 2-Amino-3-benzylurea-4-picoline] | –
18 | > 50 µM | < 50 µM | < 50 µM | COc1cccnc1N [Example 20, 2-Amino-3-methoxypyridine] | –
19 | < 50 µM | < 50 µM | < 10 µM | CSc1c(C)ccnc1N [Example 21, 2-Amino-3-methylthio-4-picoline] | –
20 | < 50 µM | > 50 µM | > 50 µM | CSCc1ccnc(N)c1 [Example 22, 2-Amino-4-methylthiomethylpyridine] | –

Row | IC50 (iNOS; [4]) | IC50 (ecNOS; [5]) | IC50 (ncNOS; [6]) | Structure (SMILES) | other results
21 | < 1 µM | < 1 µM | – | Cc1ccnc(N)c1CO [Example 23, 2-Amino-3-hydroxymethyl-4-picoline] | –
22 | < 10 µM | < 10 µM | – | CCc1c(C)ccnc1N [Example 24, 2-Amino-3-ethyl-4-picoline dihydrochloride] | –
23 | < 10 µM | < 50 µM | < 50 µM | COCc1c(C)ccnc1N [Example 25, 2-Amino-3-methoxymethyl-4-picoline dihydrochloride] | –
24 | < 50 µM | – | – | CCCc1c(C)ccnc1N [Example 26, 2-Amino-3-n-propyl-4-picoline dihydrochloride] | –
25 | < 50 µM | > 50 µM | < 50 µM | Cc1ccnc(N)c1N(C)C [Example 27, 2-Amino-3-dimethylamino-4-picoline trihydrochloride] | –
26 | < 1 µM | < 10 µM | < 10 µM | Cc1ccnc(N)c1Cl [Example 28, 2-Amino-3-chloro-4-picoline] | –
27 | < 10 µM | < 50 µM | < 50 µM | Cc1cc(N)ncc1Cl [Example 29, 2-Amino-5-chloro-4-picoline] | –
28 | – | – | – | Cc1cc(N)ncc1N [Example 30, 2.5-Diamino-4-picoline] | IC50 (iNOS): < 10 µM; IC50 (ecNOS): < 50 µM; IC50 (ncNOS): < 50 µM
29 | < 10 µM | < 50 µM | < 50 µM | CC(=O)Nc1cnc(N)cc1C [Example 31, 5-Acetylamino-2-amino-4-picoline] | –
30 | < 10 µM | < 50 µM | < 50 µM | C#Cc1cnc(N)cc1C [Example 32, 2-Amino-5-ethynyl-4-methyl-pyridine] | –
31 | < 50 µM | > 50 µM | < 10 µM | CCCCCc1cnc(N)cc1C [Example 33, 2-Amino-4-methyl-5-pentyl-pyridine] | –
32 | < 10 µM | < 10 µM | < 10 µM | COc1ccnc(N)c1 [Example 34, 4-Methoxy-2-aminopyridine] | –
33 | < 50 µM | < 50 µM | < 10 µM | CSc1ccnc(N)c1 [Example 35, 4-Methylthio-2-aminopyridine] | –
34 | < 50 µM | > 50 µM | > 50 µM | COC(=O)c1cc(Cl)cc(N)n1 [Example 36, 4-Chloro-6-methoxycarbonyl-2-aminopyridine] | –
35 | < 10 µM | < 10 µM | < 1 µM | C=Cc1c(C)cc(N)nc1C [Example 37, 4,6-Dimethyl-5-ethenyl-2-aminopyridine] | –
36 | < 10 µM | < 50 µM | < 50 µM | Nc1ccnc(N)c1 [Example 38, 2,4-Diaminopyridine dihydrochloride] | –
37 | > 50 µM | – | – | Nc1ccc(-c2ccccc2)cn1 [Example 39, 2-Amino-5-phenylpyridine] | –
38 | > 50 µM | – | – | Cc1cc(N)ncc1-c1ccccc1 [Example 40, 2-Amino-4-methyl-5-phenylpyridine] | –
39 | < 10 µM | < 10 µM | < 10 µM | Cc1cc(N)ncc1Br [Example 41, 2-Amino-5-bromo-4-methylpyridine] | –
40 | > 50 µM | – | – | Cc1cc(N)ncc1C#N [Example 42, 2-Amino-5-cyano-4-methylpyridine] | –

Row | IC50 (iNOS; [4]) | IC50 (ecNOS; [5]) | IC50 (ncNOS; [6]) | Structure (SMILES) | other results
41 | > 50 µM | > 50 µM | > 50 µM | Cc1cc(N)ncc1C(=O)O [Example 43, 2-Amino-5-carboxy-4-methylpyridine] | –
42 | > 50 µM | – | – | COC(=O)c1cnc(N)cc1C [Example 44, 2-Amino-5-methoxycarbonyl-4-methylpyridine] | –
43 | < 10 µM | < 10 µM | < 50 µM | Cc1cc(N)ncc1CN [Example 45, 2-Amino-5-aminomethyl-4-methylpyridine dihydrochloride] | –
44 | < 10 µM | > 50 µM | > 50 µM | CC(=O)NCc1cnc(N)cc1C [Example 46, 2-Amino-5-acetamidomethyl-4-methylpyridine] | –
45 | < 10 µM | – | – | Cc1cc(N)ncc1CO [Example 47, 2-Amino-5-hydroxymethyl-4-methylpyridine] | –
46 | < 50 µM | < 10 µM | < 50 µM | Nc1ncccc1OCC[C@H](N)C(=O)O [Example 48, 2-(2-Amino-3-pyridinoxy)-ethyl-(S)-glycine dihydrochloride] | –
47 | < 1 µM | < 1 µM | < 1 µM | Cc1cnc(N)cc1C [Example 49, 2-Amino-4,5-dimethylpyridine hydrochloride] | –
48 | < 50 µM | < 10 µM | < 10 µM | Cc1cnc(N)c(C)c1 [Example 50, 2-Amino-3,5-dimethylpyridine] | –
49 | < 10 µM | < 10 µM | < 10 µM | Cc1ccc(N)nc1C [Example 51, 2-Amino-5,6-dimethylpyridine] | –
50 | < 1 µM | < 1 µM | < 1 µM | CCc1cccc(N)n1 [Example 52, 2-Amino-6-ethylpyridine] | –
51 | < 1 µM | < 1 µM | < 1 µM | C=CCCc1cc(C)cc(N)n1 [Example 53, 2-Amino-6-(3-buten-1-yl)-4-methylpyridine] | –
52 | < 1 µM | < 1 µM | < 1 µM | CCc1cc(C)cc(N)n1 [Example 54, 2-Amino-6-ethyl-4-methylpyridine] | –
53 | < 1 µM | < 1 µM | < 10 µM | Cc1cc(N)nc(C(C)C)c1 [Example 55, 2-Amino-4-methyl-6-(1-methylethyl)pyridine] | –
54 | < 1 µM | < 10 µM | < 1 µM | Cc1cc(N)nc(CCCCN)c1 [Example 56, 2-Amino-6-(4-aminobutyl)-4-methylpyridine] | –
55 | < 10 µM | < 10 µM | < 1 µM | CC(=O)NCCCCc1cc(C)cc(N)n1 [Example 57, 6-(4-Acetamidobutyl)-2-amino-4-methylpyridine] | –
56 | < 1 µM | < 1 µM | < 1 µM | Cc1cc(N)nc(CCO)c1 [Example 58, 2-Amino-6-(2-hydroxyethyl)-4-methylpyridine] | –
57 | < 1 µM | < 1 µM | < 1 µM | Cc1cc(N)nc(CCC(N)C(=O)O)c1 (stereo not drawn) [Example 59, α-(2-(6-Amino-4-methylpyrid-2-yl)ethyl)glycine dihydrochloride] | –
58 | < 10 µM | < 50 µM | – | CCc1ccc(N)nc1 [Example 60, 2-Amino-5-ethylpyridine] | –
59 | < 50 µM | > 50 µM | < 50 µM | Nc1cccc(Cc2ccccc2)n1 [Example 61, 2-Amino-6-benzylpyridine] | –
60 | < 10 µM | – | – | Nc1cc2c(cn1)CCCC2 [Example 64, 3-Amino-5,6,7,8-tetrahydroisoquinoline] | –
